Test results: PubChem BioAssay (NCI)
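Grown in 96-well plates, cells were treated for 48 hours with each compound at five concentrations. Insufficient inhibition: endpoint recorded as highest concentration tested. Here, GI50 denotes the concentration required for 50% inhibition of growth. At the TGI there is no net growth.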

Assays:
Assay in all cases: NCI-60 cell line screen, 48 h
RPMI-8226 leukemia = test system: RPMI-8226 leukemia
ACHN renal = test system: ACHN renal
COLO 205 colon = test system: COLO 205 colon
OVCAR-4 ovarian = test system: OVCAR-4 ovarian
UO-31 renal = test system: UO-31 renal
NCI-H226 lung = test system: NCI-H226 lung
A498 renal = test system: A498 renal
CAKI-1 renal = test system: CAKI-1 renal
HCC-2998 colon = test system: HCC-2998 colon
DU-145 prostate = test system: DU-145 prostate

CCCNCc1nc2ccc(Br)cc2c(=O)n1CCC
TGI (RPMI-8226 leukemia): > 100 µM
TGI (ACHN renal): 29.6 µM
TGI (COLO 205 colon): 27.7 µM
TGI (OVCAR-4 ovarian): 27.7 µM
TGI (UO-31 renal): 29.8 µM
TGI (NCI-H226 lung): 26 µM
TGI (A498 renal): 32 µM

N=C(N)SCCc1cn2ccccc2n1
TGI (RPMI-8226 leukemia): > 100 µM
TGI (ACHN renal): > 100 µM
TGI (COLO 205 colon): > 100 µM
TGI (CAKI-1 renal): > 100 µM
TGI (OVCAR-4 ovarian): > 100 µM
TGI (UO-31 renal): > 100 µM
TGI (NCI-H226 lung): > 100 µM
TGI (HCC-2998 colon): > 100 µM

CC1=CC(C)(C)N=C2SC(c3ccc(Cl)cc3)=NN12
TGI (RPMI-8226 leukemia): 49.8 µM
TGI (ACHN renal): > 100 µM
TGI (COLO 205 colon): > 100 µM
TGI (CAKI-1 renal): > 100 µM
TGI (OVCAR-4 ovarian): > 100 µM
TGI (UO-31 renal): 50.4 µM
TGI (NCI-H226 lung): 55.4 µM
TGI (HCC-2998 colon): > 100 µM
TGI (A498 renal): 83.6 µM

CC(C)C(=O)N[C@@H](C)C(=O)N(Cc1ccc2ccccc2c1)N=O
TGI (RPMI-8226 leukemia): > 100 µM
TGI (ACHN renal): > 100 µM
TGI (COLO 205 colon): > 100 µM
TGI (CAKI-1 renal): > 100 µM
TGI (OVCAR-4 ovarian): > 100 µM
TGI (UO-31 renal): > 100 µM
TGI (HCC-2998 colon): > 100 µM
TGI (A498 renal): > 100 µM

CCCCCCCCCCCC(=O)OCC1OC(n2cc(F)c(=O)[nH]c2=O)C(N)C(OC(=O)CCCCCCCCCCC)C1O (stereo not given)
TGI (RPMI-8226 leukemia): > 100 µM
TGI (ACHN renal): > 100 µM
TGI (COLO 205 colon): > 100 µM
TGI (CAKI-1 renal): > 100 µM
TGI (OVCAR-4 ovarian): > 100 µM
TGI (UO-31 renal): > 100 µM
TGI (HCC-2998 colon): > 100 µM
TGI (A498 renal): > 100 µM

CC1(O)CC2C(CC1SCCO)C2(C)C (stereo not given)
TGI (RPMI-8226 leukemia): > 100 µM
TGI (ACHN renal): > 100 µM
TGI (COLO 205 colon): > 100 µM
TGI (OVCAR-4 ovarian): > 100 µM
TGI (UO-31 renal): > 100 µM
TGI (HCC-2998 colon): > 100 µM
TGI (A498 renal): > 100 µM

Cc1ccccc1C(=O)Oc1ccc(Oc2ccccc2)cc1
TGI (RPMI-8226 leukemia): > 100 µM
TGI (ACHN renal): > 100 µM
TGI (COLO 205 colon): > 100 µM
TGI (CAKI-1 renal): > 100 µM
TGI (OVCAR-4 ovarian): > 100 µM
TGI (UO-31 renal): > 100 µM
TGI (NCI-H226 lung): > 100 µM
TGI (HCC-2998 colon): > 100 µM
TGI (A498 renal): > 100 µM

Nc1cc(-c2ccccc2)ccc1O
GI50 (ACHN renal): 54.6 µM
TGI (ACHN renal): > 100 µM
GI50 (COLO 205 colon): > 100 µM
TGI (COLO 205 colon): > 100 µM
GI50 (CAKI-1 renal): 17.9 µM
TGI (CAKI-1 renal): 79.9 µM
GI50 (OVCAR-4 ovarian): 36.5 µM
TGI (OVCAR-4 ovarian): > 100 µM
GI50 (DU-145 prostate): 82.3 µM
TGI (DU-145 prostate): > 100 µM
GI50 (UO-31 renal): 34 µM
TGI (UO-31 renal): > 100 µM
GI50 (NCI-H226 lung): > 100 µM
TGI (NCI-H226 lung): > 100 µM
GI50 (A498 renal): 22.7 µM
TGI (A498 renal): > 100 µM

Nc1ccc(Nc2nc(F)nc(-c3c4ccccc4c4n3CCS4)n2)cc1
TGI (ACHN renal): 25.3 µM
TGI (COLO 205 colon): 41.5 µM
TGI (CAKI-1 renal): 23.6 µM
TGI (OVCAR-4 ovarian): 29.4 µM
TGI (UO-31 renal): 22.2 µM
TGI (NCI-H226 lung): 25.9 µM
TGI (HCC-2998 colon): 44.8 µM

Cc1ccc(C)c(NC(=O)c2cc(-c3ccc([N+](=O)[O-])cc3)nc(N)n2)c1
TGI (RPMI-8226 leukemia): > 100 µM
TGI (ACHN renal): > 100 µM
TGI (COLO 205 colon): > 100 µM
TGI (CAKI-1 renal): > 100 µM
TGI (OVCAR-4 ovarian): > 100 µM
TGI (UO-31 renal): > 100 µM
TGI (NCI-H226 lung): > 100 µM
TGI (HCC-2998 colon): > 100 µM
TGI (A498 renal): > 100 µM

CCOC(=O)/N=C(\N)SCc1ccccc1
TGI (RPMI-8226 leukemia): > 100 µM
TGI (ACHN renal): > 100 µM
TGI (CAKI-1 renal): > 100 µM
TGI (OVCAR-4 ovarian): > 100 µM
TGI (UO-31 renal): > 100 µM
TGI (NCI-H226 lung): > 100 µM
TGI (HCC-2998 colon): > 100 µM
TGI (A498 renal): > 100 µM

COc1ccc(C(c2ccc(C(C)C)cc(=O)c2O)c2c(O)cc3oc(-c4ccccc4)cc(=O)c3c2O)cc1 (stereo not given)
TGI (RPMI-8226 leukemia): 37.3 µM
TGI (ACHN renal): 45.6 µM
TGI (COLO 205 colon): 25.9 µM
TGI (CAKI-1 renal): 36.3 µM
TGI (OVCAR-4 ovarian): 23 µM
TGI (HCC-2998 colon): 33.6 µM
TGI (A498 renal): 51.5 µM

C=CC1CC12C(=O)C1OC2(C)C2C(=O)c3c(ccc4c3ccc3ccccc34)C(=O)C12 (stereo not given)
GI50 (RPMI-8226 leukemia): 12 µM
TGI (RPMI-8226 leukemia): > 100 µM
GI50 (ACHN renal): 27.5 µM
TGI (ACHN renal): 88.1 µM
GI50 (COLO 205 colon): 51 µM
TGI (COLO 205 colon): > 100 µM
GI50 (CAKI-1 renal): 19.1 µM
TGI (CAKI-1 renal): 58.6 µM
GI50 (OVCAR-4 ovarian): > 100 µM
TGI (OVCAR-4 ovarian): > 100 µM
GI50 (UO-31 renal): > 100 µM
TGI (UO-31 renal): > 100 µM
GI50 (NCI-H226 lung): 54.1 µM
TGI (NCI-H226 lung): > 100 µM
GI50 (HCC-2998 colon): 94.6 µM
TGI (HCC-2998 colon): > 100 µM

C=C1CC(CCCl)(c2ccccc2)OC1=O (stereo not given)
TGI (RPMI-8226 leukemia): 71.5 µM
TGI (ACHN renal): > 56.3 µM
TGI (COLO 205 colon): > 58 µM
TGI (OVCAR-4 ovarian): > 100 µM
TGI (UO-31 renal): > 100 µM
TGI (NCI-H226 lung): > 100 µM
TGI (HCC-2998 colon): > 100 µM
TGI (A498 renal): > 100 µM

Cc1c(C(=O)/C=C/c2ccc(Cl)cc2)[n+](=O)c2ccccc2n1[O-]
TGI (RPMI-8226 leukemia): 42.4 µM
TGI (ACHN renal): 29.6 µM
TGI (COLO 205 colon): 27.1 µM
TGI (CAKI-1 renal): 31.6 µM
TGI (OVCAR-4 ovarian): 28.3 µM
TGI (UO-31 renal): 29.9 µM
TGI (NCI-H226 lung): 33.7 µM
TGI (HCC-2998 colon): 24.5 µM
TGI (A498 renal): 29.2 µM

CC(c1ccc(Br)cc1)C(C(=O)O)C(=O)O (stereo not given)
TGI (RPMI-8226 leukemia): > 100 µM
TGI (ACHN renal): > 100 µM
TGI (COLO 205 colon): > 100 µM
TGI (CAKI-1 renal): > 100 µM
TGI (OVCAR-4 ovarian): > 100 µM
TGI (UO-31 renal): > 100 µM
TGI (NCI-H226 lung): > 100 µM
TGI (HCC-2998 colon): > 100 µM

COc1ccc2[nH]cc(-c3nc(-c4cn(C)c5ccncc45)cs3)c2c1
GI50 (ACHN renal): 1.82 µM
TGI (ACHN renal): 3.21 µM
GI50 (CAKI-1 renal): 1.84 µM
TGI (CAKI-1 renal): 3.35 µM
GI50 (OVCAR-4 ovarian): 2.14 µM
TGI (OVCAR-4 ovarian): 4.51 µM
GI50 (DU-145 prostate): 1.7 µM
TGI (DU-145 prostate): 3.11 µM
GI50 (UO-31 renal): 1.8 µM
TGI (UO-31 renal): 3.36 µM
GI50 (NCI-H226 lung): 18.3 µM
TGI (NCI-H226 lung): 45.9 µM
GI50 (HCC-2998 colon): 1.88 µM
TGI (HCC-2998 colon): 3.42 µM
GI50 (A498 renal): 8.86 µM
TGI (A498 renal): 21.5 µM
